Reference: US20230322745A1, “FUSED TRICYCLIC DERIVATIVE AND PHARMACEUTICAL APPLICATION THEREOF” (CHIA TAI TIANQING PHARMACEUTICAL GROUP CO., LTD., priority 2020, published 2023)
Where a name gives a salt, the structure may show the parent alone. Read-outs that look alike come from different tables or passages of the source.

Key:
[1] = target: β2 receptor (cells expressing human ADRB2 gene) (Homo sapiens (Human), UniProt P07550); experiment: Agonistic effect on β2 receptor by HTRF cAMP method; type: cell-based
Experimental: (§1) β2 receptor is a G protein-coupled receptor, which is mainly coupled with Gs protein, and can activate adenylate cyclase activity through the Gs protein after being activated by binding to the ligand, thereby increasing the level of intracellular cAMP. In this experiment, the agonistic activity of the compounds against the β2 receptor in vitro was assayed by the cAMP kit.
(§2) β2 cells (expressing human ADRB2 gene) from ICE Bioscience Inc. were grown under standard conditions. The cells were collected and diluted with 1× Stimulation Buffer, and 9 μL of the cell dilution was added to a white low-volume 384-well plate with 1000 cells seeded in each well. Compounds were serially diluted in DMSO in a 5-fold gradient to obtain 10 concentrations. Before testing, compounds that had been serially diluted in DMSO were subjected to 100-fold dilution with 1× Stimulation Buffer to obtain compound working solutions. The concentration of the vehicle DMSO was 0.1%. Eu-cAMP and ULight™-anti-cAMP were diluted to the working concentration with Detection buffer. 5 μL of Eu-cAMP diluent and 5 μL of ULight™-anti-cAMP diluent were sequentially added into corresponding experiment wells. After 1 h of incubation at room temperature, readings at 665 nm and 620 nm were measured under the excitation wavelength of 330 nm using a Biotek microplate reader. The activity of the compounds was obtained by plotting through Ratio (665/620) against the concentration of the compounds, fitting the curve by a nonlinear regression method using GraphPad Prism 7 software and calculating EC50.

[2] = target: β1 receptor (cells expressing human ADRB1 gene) (Homo sapiens (Human), UniProt P08588); experiment: Agonistic effect on β1 receptor by HTRF cAMP method; type: cell-based
Experimental: as §1, with “β1” for “β2”
as §2, with “β1” for “β2”, “ADRB1” for “ADRB2”, “4000” for “1000”

M3 receptor = M3 receptor (Homo sapiens (Human), UniProt P20309); experiment: M3 receptor affinity test (3H-NMS competition); type: binding
Experimental: M3 receptor is a G protein-coupled receptor. In this experiment, the activity of test compounds against the M3 receptor in vitro was assayed by the competition of radioisotope labeled NMS and non-isotope labeled test compounds for an M3 binding site.
(§3) The experiment was performed by a radioisotope affinity assay. The M3 receptor membrane protein was prepared at 10 μg/mL by Biology Department of WuXi AppTec, and compounds were serially diluted in a 2.5-fold gradient in DMSO to obtain 10 concentrations. Radioisotope 3H-NMS was prepared at 0.2 nM in an assay buffer (10 mM HEPES, 1 mM MgCl2, pH 7.40). In formal testing, the experimental system comprising 1 of the test compound, 100 μL of M3 receptor membrane protein and 100 μL of radioisotope was shaken in a shaker at 300 RPM for 2 h at room temperature. A GF/C plate (Perkin Elmer, Cat No. 6055690) was prefoamed with 0.3% PEI, and the membrane proteins in the reaction solution were collected by filtration onto the GF/C plate. The signal values were read by a Perkin Elmer Microbeta2 instrument and the inhibition rate for each concentration point was shown as a percentage.

M2 receptor = M2 receptor (Homo sapiens (Human), UniProt P08172); experiment: M2 receptor affinity test (3H-NMS competition); type: binding
Experimental: M2 receptor is a G protein-coupled receptor. In this experiment, the activity of test compounds against the M2 receptor in vitro was assayed by the competition of radioisotope labeled NMS and non-isotope labeled test compounds for an M2 binding site.
as §3, with “The M2 receptor membrane” for “The experiment was performed by a radioisotope affinity assay. The M3 receptor membrane”, “prepared at 100 μg/mL by” for “prepared at 10 μg/mL by”, “comprising 1 μL of the” for “comprising 1 of the”, “μL of M2 receptor membrane” for “μL of M3 receptor membrane”

[3] = Pharmacokinetic evaluation in SD rats; type: in vivo; details: male, rat, plasma; for clearance / AUC / half-life: 10% aqueous HPβCD; for clearance: read-out: Clearance rate for administration by intravenous injection; for bioavailability: intra-tracheal 5 mpk vs intravenous 2 mpk, read-out: Bioavailability F for intra-tracheal administration with a nebulizer needle; for half-life: read-out: Half life T1/2 for intra-tracheal administration with a nebulizer needle (converted)
Experimental: To test pharmacokinetics of test compounds in SD rats
SD rats (male, 200-250 g, 7-9 weeks old, Beijing Vital River Laboratory Animal Technology Co., Ltd.)
A formulation containing 10% aqueous HPβCD solution as a vehicle was administered by intravenous injection (2 mpk), and a formulation containing 10% aqueous HPβCD solution as a vehicle was administered by intra-tracheal administration (5 mpk) with a nebulizer needle. Before the animal experiment, all animals were fed normally; and all animals were given free access to water. Blood collection time points were as follows: intravenous administration group: 0.083 h, 0.25 h, 0.5 h, 1 h, 2 h, 4 h, 8 h, and 24 h; nebulizer needle administration group: 0.083 h, 0.25 h, 0.5 h, 1 h, 2 h, 4 h, 8 h, and 24 h.
Whole blood samples (0.25 mL) were collected via the jugular vein (or other suitable collection site) at prescribed time points, and all blood samples were added to labeled plastic centrifuge tubes containing a K2-EDTA anticoagulant. After blood collection, plasma was separated by centrifugation and placed in dry ice rapidly, and the samples were stored at low temperature. All samples were analyzed by LC-MS/MS with a limit of detection of 4 nM. The mean concentration of plasma was processed using a non-compartmental model of the pharmacokinetic software WinNonlin™ Version 6.3 (Pharsight, Mountain View, CA), and pharmacokinetic parameters were calculated by a linear log-trapezoidal method.

[4] = HTRF cAMP, 1 h incubation at room temperature, read-out: EC50, agonistic activity against the β2 receptor in vitro
[5] = read-out: IC50, activity against the M3 receptor in vitro
[6] = 2 mg/kg, intravenous injection 2 mpk
[7] = 2 mg/kg, intravenous injection 2 mpk, read-out: Concentration integration AUC for administration by intravenous injection
[8] = inhaled or intranasal, 5 mg/kg, intra-tracheal 5 mpk, read-out: Concentration integration AUC for intra-tracheal administration with a nebulizer needle
[9] = inhaled or intranasal, 5 mg/kg, intra-tracheal 5 mpk

Sequence of M2 receptor (P08172 whole entry): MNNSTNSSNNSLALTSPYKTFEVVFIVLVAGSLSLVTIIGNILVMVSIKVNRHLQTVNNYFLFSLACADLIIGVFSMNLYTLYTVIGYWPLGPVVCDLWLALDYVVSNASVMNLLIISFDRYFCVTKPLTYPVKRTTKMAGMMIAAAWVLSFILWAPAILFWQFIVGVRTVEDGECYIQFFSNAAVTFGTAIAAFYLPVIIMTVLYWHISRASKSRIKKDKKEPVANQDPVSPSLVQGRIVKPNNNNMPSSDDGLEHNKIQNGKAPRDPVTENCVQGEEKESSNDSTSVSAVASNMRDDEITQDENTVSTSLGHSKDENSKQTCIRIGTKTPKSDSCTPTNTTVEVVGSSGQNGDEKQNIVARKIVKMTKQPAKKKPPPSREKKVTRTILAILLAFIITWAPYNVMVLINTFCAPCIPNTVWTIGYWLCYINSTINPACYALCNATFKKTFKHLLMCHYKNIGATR
Sequence of β2 receptor (cells expressing human ADRB2 gene) (P07550 whole entry): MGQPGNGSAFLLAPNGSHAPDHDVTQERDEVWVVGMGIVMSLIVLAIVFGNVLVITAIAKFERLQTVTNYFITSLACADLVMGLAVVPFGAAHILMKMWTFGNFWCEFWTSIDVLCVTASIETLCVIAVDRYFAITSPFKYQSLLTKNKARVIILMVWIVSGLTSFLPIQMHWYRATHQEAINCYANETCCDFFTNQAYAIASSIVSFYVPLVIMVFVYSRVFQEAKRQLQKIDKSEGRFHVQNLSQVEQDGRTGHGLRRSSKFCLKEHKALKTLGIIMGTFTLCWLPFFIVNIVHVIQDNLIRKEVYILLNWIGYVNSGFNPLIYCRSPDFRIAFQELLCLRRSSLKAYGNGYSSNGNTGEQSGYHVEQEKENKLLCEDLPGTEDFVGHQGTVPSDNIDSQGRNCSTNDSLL
Sequence of M3 receptor (P20309 whole entry): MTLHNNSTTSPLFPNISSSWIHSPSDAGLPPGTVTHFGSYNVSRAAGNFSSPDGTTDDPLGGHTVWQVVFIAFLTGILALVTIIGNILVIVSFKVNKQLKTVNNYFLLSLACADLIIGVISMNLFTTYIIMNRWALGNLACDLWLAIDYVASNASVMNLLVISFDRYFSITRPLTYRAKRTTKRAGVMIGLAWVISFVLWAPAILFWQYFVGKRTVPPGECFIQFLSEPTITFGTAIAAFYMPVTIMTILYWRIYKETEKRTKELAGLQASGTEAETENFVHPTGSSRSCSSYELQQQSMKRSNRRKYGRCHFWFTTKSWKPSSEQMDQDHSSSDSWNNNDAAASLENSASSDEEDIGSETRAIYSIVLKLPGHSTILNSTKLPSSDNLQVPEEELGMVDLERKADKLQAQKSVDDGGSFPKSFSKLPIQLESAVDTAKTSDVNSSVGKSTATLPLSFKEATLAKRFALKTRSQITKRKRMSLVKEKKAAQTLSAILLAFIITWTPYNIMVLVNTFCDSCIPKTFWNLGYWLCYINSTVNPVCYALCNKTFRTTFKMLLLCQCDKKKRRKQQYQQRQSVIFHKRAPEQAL
Sequence of β1 receptor (cells expressing human ADRB1 gene) (P08588 whole entry): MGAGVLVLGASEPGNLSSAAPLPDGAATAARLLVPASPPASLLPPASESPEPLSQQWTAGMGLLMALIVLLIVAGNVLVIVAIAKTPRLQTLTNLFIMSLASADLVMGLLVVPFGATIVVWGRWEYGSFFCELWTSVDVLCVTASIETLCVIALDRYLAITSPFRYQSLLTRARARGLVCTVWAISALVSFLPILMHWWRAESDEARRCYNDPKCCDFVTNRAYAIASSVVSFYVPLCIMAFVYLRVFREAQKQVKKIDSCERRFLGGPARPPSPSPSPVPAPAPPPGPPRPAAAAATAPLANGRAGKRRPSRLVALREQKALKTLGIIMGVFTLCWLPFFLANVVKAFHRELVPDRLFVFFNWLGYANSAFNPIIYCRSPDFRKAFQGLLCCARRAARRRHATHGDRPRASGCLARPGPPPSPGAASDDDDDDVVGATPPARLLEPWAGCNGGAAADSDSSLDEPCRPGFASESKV

Question: Which results are given for `Cn1ncc2c(CNC[C@H](O)c3ccc(O)c4[nH]c(=O)ccc34)cc3nnn(CCCN(C)[C@H]4CC[C@H](OC(=O)C(O)(c5cccs5)c5cccs5)CC4)c3c21` [Compound 11]?
Answer: EC50 [1, 4]: 1.12 nM; EC50 [2]: 33.7 nM; IC50 (M3 receptor; [5]): 0.638 nM

Question: Which EC50 [1, 4] does the source give for `CN(CCCn1nnc2cc(CNC[C@H](O)c3ccc(O)c4[nH]c(=O)ccc34)c3c(c21)CCC3)[C@H]1CC[C@H](OC(=O)C(O)(c2ccc(Cl)s2)c2ccc(Cl)s2)CC1` [Trifluoroacetate salt of compound 10] here?
Answer: 1.36 nM

Question: And the EC50 [2]?
Answer: 269 nM

Question: And the IC50 (M3 receptor; [5])?
Answer: 1.27 nM

Question: For `CN(CCCn1nnc2cc(CNC[C@H](O)c3ccc(O)c4[nH]c(=O)ccc34)c3c(c21)COC3)[C@H]1CC[C@H](OC(=O)C(O)(c2cccs2)c2cccs2)CC1` [Formate salt of compound 40], which EC50 [1] is on record?
Answer: 2.8 nM

Question: What about the EC50 [2] of the same compound?
Answer: 56.7 nM

Question: And the IC50 (M3 receptor)?
Answer: 0.363 nM

Question: What about the IC50 (M2 receptor) of the same compound?
Answer: 0.228 nM

Question: For `CN(CCCn1cnc2cc(CNC[C@H](O)c3ccc(O)c4[nH]c(=O)ccc34)c3c(c21)CCC3)[C@H]1CC[C@H](OC(=O)C(O)(c2cccs2)c2cccs2)CC1` [Formate salt of compound 41], which EC50 [1] is on record?
Answer: 13.8 nM

Question: What about the EC50 [2] of the same compound?
Answer: 229 nM

Question: And the IC50 (M3 receptor)?
Answer: 0.201 nM

Question: And the IC50 (M2 receptor)?
Answer: 0.268 nM

Question: Which results are given for `CN(CCCn1nnc2cc(CNC[C@H](O)c3ccc(O)c4[nH]c(=O)ccc34)ccc21)[C@H]1CC[C@H](OC(=O)C(O)(c2cccs2)c2cccs2)CC1` [Hydrofluoride salt of AZD8871, reference compound]?
Answer: clearance [3, 6]: 35 mL/min/kg; AUC [3, 7]: 1.27 µM·h; bioavailability ([3]; inhaled or intranasal, 5 mg/kg): 76.7%; AUC [3, 8]: 2.44 µM·h; half-life [3, 9]: 30.9 min

Question: Which results are given for `O=C(OC1CCC2(CC1)CN(CCCn1nnc3cc(CNC[C@H](O)c4ccc(O)c5[nH]c(=O)ccc45)c4c(c31)CCC4)C2)C(O)(c1cccs1)c1cccs1` [Formate salt of compound 4]?
Answer: EC50 [1, 4]: 2.15 nM; EC50 [2]: 304 nM; IC50 (M3 receptor; [5]): 0.343 nM

Question: Which clearance [3, 6] does the source give for `CN(CCCn1nnc2cc(CNC[C@H](O)c3ccc(O)c4[nH]c(=O)ccc34)c3c(c21)CCC3)[C@H]1CC[C@H](OC(=O)C(O)(c2cccs2)c2cccs2)CC1` [Trifluoroacetate salt of compound 1] here?
Answer: 62.8 mL/min/kg

Question: What about the AUC [3, 7] of the same compound?
Answer: 0.681 µM·h

Question: And the bioavailability ([3]; inhaled or intranasal, 5 mg/kg)?
Answer: 153%

Question: What about the AUC [3, 8] of the same compound?
Answer: 2.61 µM·h

Question: What about the half-life [3, 9] of the same compound?
Answer: 82.8 min

Question: And the EC50 [1, 4]?
Answer: 3.47 nM

Question: And the EC50 [2]?
Answer: 84.5 nM

Question: What about the IC50 (M3 receptor; [5]) of the same compound?
Answer: 0.384 nM

Question: What about the IC50 (M2 receptor) of the same compound?
Answer: 0.062 nM

Question: For `CN(CCCn1nnc2cc(CNC[C@H](O)c3ccc(O)c4[nH]c(=O)ccc34)c3c(c21)OCO3)[C@H]1CC[C@H](OC(=O)C(O)(c2cccs2)c2cccs2)CC1` [Formate salt of compound 33], which EC50 [1] is on record?
Answer: 0.742 nM

Question: And the EC50 [2]?
Answer: 53.1 nM

Question: What about the IC50 (M3 receptor) of the same compound?
Answer: 0.494 nM

Question: And the IC50 (M2 receptor)?
Answer: 0.153 nM

Question: What does the source list for `O=C(OC1CC2(CCN(CCCn3nnc4cc(CNC[C@H](O)c5ccc(O)c6[nH]c(=O)ccc56)c5c(c43)CCC5)CC2)C1)C(O)(c1ccc(Cl)s1)c1ccc(Cl)s1` [Formate salt of compound 19]?
Answer: EC50 [1, 4]: 5.14 nM; EC50 [2]: 1440 nM; IC50 (M3 receptor; [5]): 0.281 nM

Question: For `CN(CCCn1nnc2cc(CNC[C@H](O)c3ccc(O)c4[nH]c(=O)ccc34)c3c(c21)OCCO3)[C@H]1CC[C@H](OC(=O)C(O)(c2cccs2)c2cccs2)CC1` [Formate salt of compound 12], which EC50 [1, 4] is on record?
Answer: 2.04 nM

Question: What about the EC50 [2] of the same compound?
Answer: 127 nM

Question: With `C[N+]1(CCCn2nnc3cc(CNC[C@H](O)c4ccc(O)c5[nH]c(=O)ccc45)c4c(c32)CCC4)CCC(OC(=O)C(O)(c2cccs2)c2cccs2)CC1` (stereo partly shown) [Hydrobromide salt of compound 30] as the compound, how does the EC50 [2] read?
Answer: 94.9 nM

Question: What does the source list for `O=C(OC1CC2(C1)CN(CCCn1nnc3cc(CNC[C@H](O)c4ccc(O)c5[nH]c(=O)ccc45)c4c(c31)CCC4)C2)C(O)(c1cccs1)c1cccs1` [Formate salt of compound 2]?
Answer: EC50 [1, 4]: 0.889 nM; EC50 [2]: 157 nM; IC50 (M3 receptor; [5]): 0.347 nM

Question: Which IC50 (M3 receptor; [5]) does the source give for `O=C(OCC1(O)CCN(CCCn2nnc3cc(CNC[C@H](O)c4ccc(O)c5[nH]c(=O)ccc45)c4c(c32)CCC4)CC1)C(O)(c1cccs1)c1cccs1` [Formate salt of compound 31] here?
Answer: 0.655 nM

Question: Which results are given for `Cc1ccc(C(O)(C(=O)C[C@H]2CC[C@H](N(C)CCCn3nnc4cc(CNC[C@H](O)c5ccc(O)c6[nH]c(=O)ccc56)c5c(c43)CCC5)CC2)c2ccc(C)s2)s1` [Formate salt of compound 32]?
Answer: EC50 [1, 4]: 1.57 nM; EC50 ([2]; HTRF cAMP, 1 h incubation at room temperature, read-out: EC50, agonistic activity against the β1 receptor in vitro): 145 nM; IC50 (M3 receptor; 0.2 nM 3H-NMS, M3 receptor membrane protein, 2 h at room temperature, read-out: IC50, activity against the M3 receptor in vitro): 1.2 nM; IC50 (M2 receptor; 0.2 nM 3H-NMS, M2 receptor membrane protein, 2 h at room temperature, read-out: IC50, activity against the M2 receptor in vitro): 0.814 nM
